For one data set, the system named is Bipolaris oryzae. It counts as in vivo, Bipolaris oryzae on rice. The settings on record: A, B, C, F compared to control, D compared to A.
For data set [1] the following is noted: generally accepted limit; cited from earlier work.

Each structure is given as a SMILES string.

Description for Bipolaris oryzae: The trial was arranged in a completely randomized design with five replications. Each experimental unit consisted of one plastic container with 5 liters of nutrient solution and four rice plants. The experiment was repeated once. Compositions A-F were applied to rice leaves as foliar sprays 24 hours before inoculation with the brown spot pathogen Bipolaris oryzae. Solutions of compositions A-D were prepared at 2% concentration. The fungicide (composition F) was prepared at 1.5 ml/liter concentration. Plants at the fifth leaf tiller growth stage were sprayed using a DeVilbiss No. 15 atomizer. The base of the plants was covered during spraying to prevent run-off of the sprayed materials into the nutrient solution.
A pathogenic isolate of B. oryzae (CNPAF-HO 82), obtained from symptomatic rice plants, was used to inoculate the plants. A conidial suspension of B. oryzae (5×10^3 conidia/ml) was applied as a fine mist to the adaxial leaf blades of each plant until runoff using a VL Airbrush atomizer (Paasche Airbrush Co., Chicago, Ill.). Immediately after inoculation, plants were transferred to a mist chamber at 25±2° C. with an initial 24 h dark period. […]
Brown spot severity on leaves of each plant was scored at 24, 48, 72 and 96 hours after inoculation using an International Rice Research Institute (IRRI) scale based on the percentage of diseased leaf area.

With `CC1COC(Cn2cncn2)(c2ccc(Oc3ccc(Cl)cc3)cc2Cl)O1` (centres unmarked) [Composition F, diphenoconazole], the “necrotic lesions on leaves (number and size)” value in the data set on Bipolaris oryzae was “complete absence of lesions”.
Take `O[Si](O)(O)O` [monosilicic acid]: in data set [1], the “limit of solubility in water” value was “about 2 mM”.
